{"source": "patent US6201129A", "about": "“Tricyclic derivatives and their use as anti-cancer agents” (Univ. College Cardiff Consultants, priority 1997, dated 2001)", "test_system": "HT1080scc2 (clone of human fibrosarcoma cell-line HT1080)", "assay": "Cell proliferation/cytotoxicity assay, methylene blue biomass staining", "type": "cell-based", "details": "HT-1080, HT1080scc2 cells, 1×10^3 cells per well, compound added day 1, further 4 days at 37° C., methylene blue staining read at 620 nm", "experimental": "Compounds of the general formula (I) have been tested against two specially developed cell lines which are clones of the human fibrosarcoma cell-line HT1080. One clone HT1080scc2, retains the transformed phenotype of the parental line, whilst the other, HT10801c, is a morphologically flat, non-tumourigenic, revertant.\nAssays for cell proliferation/cytotoxity were carried out in tissue culture grade 96 well microtitre plates (Costar). Cells in log growth were added to the plates at a concentration of 1×10^3 cells per well on day 0 and serially diluted compounds were then added on day 1. Plates were then incubated at 37° C. in 5% CO2 in air for a further 4 days.\nFor quantitation of cell growth, the methylene blue biomass staining method was used, the test being read on a Multiscan plate reader at wavelength of 620 nm. The morphology of the cells was checked microscopically under phase-contrast immediately before the fixation and staining with methylene blue, and by ordinary light microscopy thereafter. IC50 values for active compounds were obtained using the computer programme, GS1 and dose-response slopes were also plotted."}
{"smiles": "CCOC(=O)c1[nH]c2cc3[nH]c(C)cc3c(C)c2c1C", "note": "[Example 2, Ethyl 1,7-dihydro-3,4,6-trimethylpyrrolo[3,2-f]indole-2-carboxylate]", "values": [{"measurement": "IC50", "value": 3, "unit": "µM"}]}
{"smiles": "CCOC(=O)c1[nH]c2cc3c(C(=O)OCC)c(C)[nH]c3c(C)c2c1C", "note": "[Example 1, Diethyl 1,5-dihydro-3,4,6-trimethylpyrrolo[2,3-f]indole-2,7-dicarboxylate]", "values": [{"measurement": "IC50", "value": 100, "unit": "µM"}]}
